In US11220508B2, “TYK2 inhibitors and uses thereof” (Nimbus Lakshmi, Inc., priority 2016, dated 2022):

Experiments:
[1] = biological target: human TYK2 (JH2domain-pseudokinase) (Homo sapiens (Human), UniProt P29597); assay: TYK2 JH2 domain binding assay (KINOMEscan, DiscoveRx); settings: Table 4, JH2 binding assay
[2] = biological target: JAK2 JH1 kinase function (Homo sapiens (Human), UniProt O60674); assay: JAK2 radioactive kinase assay; type: biochemical; settings: active kinase assay, ATP at 10 μM
Sequence of JAK2 JH1 kinase function (O60674 whole entry): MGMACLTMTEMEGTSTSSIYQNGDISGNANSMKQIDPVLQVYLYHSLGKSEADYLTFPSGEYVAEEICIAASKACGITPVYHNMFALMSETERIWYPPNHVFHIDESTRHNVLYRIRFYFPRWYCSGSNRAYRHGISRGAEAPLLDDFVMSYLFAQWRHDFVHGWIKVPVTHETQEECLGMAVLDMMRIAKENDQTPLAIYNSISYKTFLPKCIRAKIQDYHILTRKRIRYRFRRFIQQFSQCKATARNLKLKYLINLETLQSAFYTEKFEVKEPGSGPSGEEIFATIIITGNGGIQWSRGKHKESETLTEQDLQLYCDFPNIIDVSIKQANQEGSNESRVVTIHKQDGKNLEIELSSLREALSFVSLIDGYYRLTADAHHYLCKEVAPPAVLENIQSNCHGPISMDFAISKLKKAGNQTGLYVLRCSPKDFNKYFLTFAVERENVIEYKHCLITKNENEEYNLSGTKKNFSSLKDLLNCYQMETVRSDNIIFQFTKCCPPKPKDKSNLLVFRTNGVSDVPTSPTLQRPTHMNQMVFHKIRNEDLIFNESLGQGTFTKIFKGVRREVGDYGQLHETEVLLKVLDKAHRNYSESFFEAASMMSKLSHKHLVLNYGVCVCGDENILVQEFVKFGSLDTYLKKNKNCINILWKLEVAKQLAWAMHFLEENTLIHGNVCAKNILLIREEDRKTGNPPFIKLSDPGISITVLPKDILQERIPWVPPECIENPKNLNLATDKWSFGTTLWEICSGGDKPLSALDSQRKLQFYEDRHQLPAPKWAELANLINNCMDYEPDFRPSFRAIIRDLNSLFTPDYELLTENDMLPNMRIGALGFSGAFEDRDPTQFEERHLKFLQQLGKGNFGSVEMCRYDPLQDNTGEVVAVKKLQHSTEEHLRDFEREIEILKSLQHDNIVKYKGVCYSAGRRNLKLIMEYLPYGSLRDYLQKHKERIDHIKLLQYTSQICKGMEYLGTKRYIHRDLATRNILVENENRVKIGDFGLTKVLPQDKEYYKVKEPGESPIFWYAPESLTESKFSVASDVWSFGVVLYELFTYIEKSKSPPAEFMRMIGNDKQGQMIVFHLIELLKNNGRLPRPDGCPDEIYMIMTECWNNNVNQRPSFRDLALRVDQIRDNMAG
Protocol: (§1) Peptide substrate, [KKSRGDYMTMQIG], (20 μM) is prepared in reaction buffer (20 mM Hepes pH 7.5, 10 mM MgCl2, 1 mM EGTA, 0.02% Brij35, 0.02 mg/mL BSA, 0.1 mM […], 2 mM DTT, 1% DMSO. TYK2 (Invitrogen) kinase is added, followed by compounds in DMSO. 33PATP is added to initiate the reaction in ATP at 10 μM. Kinase reaction is incubated for 120 min at room temp and reactions are spotted onto P81 ion exchange paper (Whatman #3698-915), and then washed extensively in 0.75% phosphoric acid, prior to reading the radioactivity counts. For JAK2 (Invitrogen) kinase assay the peptide substrate poly[Glu:Tyr] (4:1), 0.2 mg/ml is used, in the reaction carried out the same as for TYK2.

[3] = biological target: TYK2 JH1 kinase function (Homo sapiens (Human), UniProt P29597); assay: Tyk2 radioactive kinase assay; type: biochemical; settings: active kinase assay, ATP at 10 μM
Sequence of TYK2 JH1 kinase function (P29597 whole entry): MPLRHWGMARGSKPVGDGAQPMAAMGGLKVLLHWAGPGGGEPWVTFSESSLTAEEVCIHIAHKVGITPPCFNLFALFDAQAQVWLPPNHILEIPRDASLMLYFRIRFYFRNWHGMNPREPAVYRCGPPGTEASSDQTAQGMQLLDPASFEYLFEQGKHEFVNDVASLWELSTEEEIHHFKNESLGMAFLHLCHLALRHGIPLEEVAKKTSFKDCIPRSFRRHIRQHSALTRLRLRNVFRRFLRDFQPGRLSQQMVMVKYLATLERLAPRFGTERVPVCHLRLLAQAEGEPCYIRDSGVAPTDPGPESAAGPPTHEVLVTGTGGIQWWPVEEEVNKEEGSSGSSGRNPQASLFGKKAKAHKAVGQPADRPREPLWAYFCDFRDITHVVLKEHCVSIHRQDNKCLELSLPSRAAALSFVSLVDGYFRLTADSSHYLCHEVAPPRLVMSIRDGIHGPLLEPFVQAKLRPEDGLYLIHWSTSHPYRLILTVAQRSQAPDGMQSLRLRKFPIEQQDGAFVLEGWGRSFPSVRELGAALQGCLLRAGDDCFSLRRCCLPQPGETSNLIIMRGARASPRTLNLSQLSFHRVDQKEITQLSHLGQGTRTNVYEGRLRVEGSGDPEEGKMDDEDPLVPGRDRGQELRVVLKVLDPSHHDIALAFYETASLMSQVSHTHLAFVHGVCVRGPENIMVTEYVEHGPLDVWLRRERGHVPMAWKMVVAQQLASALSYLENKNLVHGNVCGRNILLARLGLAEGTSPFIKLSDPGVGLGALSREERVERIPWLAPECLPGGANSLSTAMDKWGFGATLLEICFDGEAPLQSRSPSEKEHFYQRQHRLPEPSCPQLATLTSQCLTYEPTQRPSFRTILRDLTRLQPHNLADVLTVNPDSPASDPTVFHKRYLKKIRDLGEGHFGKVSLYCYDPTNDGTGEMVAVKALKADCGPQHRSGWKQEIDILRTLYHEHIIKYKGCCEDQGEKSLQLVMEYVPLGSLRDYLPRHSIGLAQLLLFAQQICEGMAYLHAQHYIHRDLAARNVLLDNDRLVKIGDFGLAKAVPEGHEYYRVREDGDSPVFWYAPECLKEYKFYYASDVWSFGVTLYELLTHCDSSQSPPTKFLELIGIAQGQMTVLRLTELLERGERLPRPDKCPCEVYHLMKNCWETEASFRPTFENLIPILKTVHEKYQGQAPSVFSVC
Protocol: as §1

Sequence of human TYK2 (JH2domain-pseudokinase) (P29597 556-888): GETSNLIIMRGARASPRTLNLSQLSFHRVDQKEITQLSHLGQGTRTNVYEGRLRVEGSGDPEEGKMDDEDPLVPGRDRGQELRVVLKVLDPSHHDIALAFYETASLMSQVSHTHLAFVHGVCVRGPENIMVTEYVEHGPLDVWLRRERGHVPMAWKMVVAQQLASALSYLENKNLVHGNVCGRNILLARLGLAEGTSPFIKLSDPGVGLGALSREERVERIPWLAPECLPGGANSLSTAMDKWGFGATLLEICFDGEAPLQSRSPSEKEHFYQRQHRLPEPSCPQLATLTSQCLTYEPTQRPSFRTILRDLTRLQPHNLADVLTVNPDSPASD

COc1c(Cl)cccc1Nc1cc(Nc2cccc(N3CC(OC)C3)n2)nc2[nH]n(C)c(=O)c12 [Compound I-116, 4-((3-chloro-2-methoxyphenyl)amino)-6-((6-(3-methoxyazetidin-1-yl)pyridin-2-yl)amino)-2-methyl-1,2-dihydro-3H-pyrazolo[3,4-b]pyridin-3-one]
Kd [1]: > 10 nM

COc1c(Nc2cc(NC(=O)C3CC3)ncc2-c2ncc(F)s2)cccc1-c1nnn(C)n1 [VIII-2, N-(5-(5-fluorothiazol-2-yl)-4-((2-methoxy-3-(2-methyl-2H-tetrazol-5-yl)phenyl)amino)pyridin-2-yl)cyclopropanecarboxamide]
inhibitory activity against JAK2 JH1 kinase function [2]: no detectable inhibitory activity
inhibitory activity against TYK2 JH1 kinase function [3]: no detectable inhibitory activity

COc1c(Nc2cc(NC(=O)C3CC3)nc3[nH]n(C)c(=O)c23)cccc1-c1nnn(C)n1 [Compound I-1, N-(4-((2-methoxy-3-(2-methyl-2H-tetrazol-5-yl)phenyl)amino)-2-methyl-3-oxo-2,3-dihydro-1H-pyrazolo[3,4-b]pyridin-6-yl)cyclopropanecarboxamide]
inhibitory activity against TYK2 JH1 kinase function [3]: no detectable inhibitory activity

COC(=O)c1nnc(-c2cnc(NC(=O)C3CC3)cc2Nc2cccc(-c3ncn(C)n3)c2OC)o1 [VIII-4, methyl 5-(6-(cyclopropanecarboxamido)-4-((2-methoxy-3-(1-methyl-1H-1,2,4-triazol-3-yl)phenyl)amino)pyridin-3-yl)-1,3,4-oxadiazole-2-carboxylate]
inhibitory activity against JAK2 JH1 kinase function [2]: no detectable inhibitory activity
inhibitory activity against TYK2 JH1 kinase function [3]: no detectable inhibitory activity

COCc1ccnc(Nc2cc(Nc3cccc(-c4nnn(C)n4)c3OC)c3c(=O)n(C)[nH]c3n2)c1 [Compound I-2, 4-((2-methoxy-3-(2-methyl-2H-tetrazol-5-yl)phenyl)amino)-6-((4-(methoxymethyl)pyridin-2-yl)amino)-2-methyl-1,2-dihydro-3H-pyrazolo[3,4-b]pyridin-3-one]
inhibitory activity against TYK2 JH1 kinase function [3]: no detectable inhibitory activity

COc1c(Nc2cc(NC(=O)C3CC3)ncc2-c2ncc(Cl)s2)cccc1-c1nnn(C)n1 [VIII-1, N-(5-(5-chlorothiazol-2-yl)-4-((2-methoxy-3-(2-methyl-2H-tetrazol-5-yl)phenyl)amino)pyridin-2-yl)cyclopropanecarboxamide]
inhibitory activity against JAK2 JH1 kinase function [2]: no detectable inhibitory activity
inhibitory activity against TYK2 JH1 kinase function [3]: no detectable inhibitory activity

COc1c(Nc2cc(NC(=O)C3CC3)ncc2-c2nnc(C(F)(F)F)o2)cccc1-c1ncn(C)n1 [VIII-3, N-(4-((2-methoxy-3-(1-methyl-1H-1,2,4-triazol-3-yl)phenyl)amino)-5-(5-(trifluoromethyl)-1,3,4-oxadiazol-2-yl)pyridin-2-yl)cyclopropanecarboxamide]
inhibitory activity against JAK2 JH1 kinase function [2]: no detectable inhibitory activity
inhibitory activity against TYK2 JH1 kinase function [3]: no detectable inhibitory activity
